Source: a melting point compilation (Tetko et al.; mined from patent text by program, amines drawn as free bases though some values may be those of a salt)

| melting point [°C] | Compound |
| --- | --- |
| 205 to 206 | COc1ccccc1CNC(=O)c1c(-c2ccc(C)cc2)c2cccnc2c(=O)n1CCCCO |
| 74 to 87 | CCOC(=O)/C=C(C)/C=C/C=C(C)/C=C(/F)c1c(C)cc(OC)c(C)c1C |
| 75 to 77 | O=c1ccoc2ccc(OCCCCCl)cc12 |
| 145 to 147 | COc1ccc(Cl)cc1C(=O)NCCC1CCN(S(=O)(=O)NC(=S)NC(C)C)CC1 |
| 106 to 107 | N#Cc1ccc(F)cc1-c1ccc(C(F)(F)F)cc1 |
| 106 to 108 | NCC(=NNc1ccccc1)c1ccccc1 |
| 250 to 251 | Cc1cccc(N2CCN(c3cc[nH]c(=S)c3C#N)CC2C)c1 (configuration not stated) |
| 114 to 115 | CCCc1nn(-c2ccc(C(F)(F)F)cn2)cc1CCCOc1ccc(CCC(=O)O)c(OC)c1 |
| 132 to 135 | O=CC12CC3CC(CC(C3)C1)C2 |
| 59 to 63 | CCCC(=O)C(=CNc1cccc(COC(=O)c2ccccc2)c1)C(=O)OCC |
| 150 to 152 | O=C(Nc1ccc2c(c1)CCC2)C(=O)N1CCC(Cc2ccc(F)cc2)CC1 |
| 222 to 224 | CC(=O)NC[C@H]1CN(c2ccc(N3CCC(C#N)(CC#N)CC3)c(F)c2)C(=O)O1 |
| 203 to 205 | N#CCc1ccc(C(=O)c2ccc(Cl)cc2)[nH]1 |
| 202 | CNN(NC)C(=O)Nc1cccc2c1C(=O)c1c-2n[nH]c1-c1ccco1 |
| 132 | COc1cc(C)c(NS(C)(=O)=O)cc1C(=O)NCC(Cl)CCCCl (configuration not stated) |
| 80 to 82 | CCCOc1ccc(Br)c(C(=O)C=Cc2ccc3c(c2)OCO3)c1 |
| 199 to 201 | CN(Cc1nc(-c2cc(C(C)(C)C)c(O)c(C(C)(C)C)c2)cs1)c1ccc([N+](=O)[O-])cc1 |
| 81 to 86 | CCCN(c1ccncc1)n1cc(C(C)=O)c2ccccc21 |
| 153 | Cc1cccc(C(=O)COc2c(C(=O)c3ccc(Cl)c(C)c3Cl)c(C)nn2C)c1 |
| 190 to 195 | N#Cc1ccc2[nH]c(-c3ccc(Cl)c(Cl)c3)c(CCCC(=O)O)c2c1 |
| 122 to 123 | C=CCC1C(=O)c2cc(OC)ccc2C2CCC3(C)C(O)CCC3C12 (configuration not stated) |
| 142 | CCOC(=O)c1c(C)n(-c2ccccc2)c(C)c(C(=O)OCc2ccccc2)c1=O |
| 93 to 95 | Nc1ncc(Oc2ccc(Cl)cc2)c(N2CCNCC2)n1 |
| 194 to 196 | CC(C)(C)C(=O)c1cn(COCC[Si](C)(C)C)c2ncc(-c3ccc4c(ccn4Cc4ccccn4)c3)nc12 |

| melting point [°C] | Compound |
| --- | --- |
| 202 to 204 | COc1cc(Nc2nc(-c3ccc(Cl)cc3)cc(C(F)(F)F)n2)ccc1-n1cnc(C)c1 |
| 158 to 159 | CCCCCS(=O)(=O)NC(=O)c1ccc2sc(C)c(Cc3ccc(Cl)cc3Cl)c2c1 |
| 125 to 126 | Fc1ccc2c(C3CCN(CC4=Cc5cc6c(cc54)OCO6)CC3)noc2c1 |
| 103 to 107 | CC(=O)N(C)C(Cc1ccccc1N)c1ccccn1 (configuration not stated) |
| 167 to 171 | COc1cccc2cc(C(=O)c3ccc(Cl)c(S(N)(=O)=O)c3)oc12 |
| 137 to 138 | O=[N+]([O-])c1ccc(Cl)nc1-c1ccncc1 |
| 148 to 150 | CCCCOc1ccc2c(=O)c(S(C)=O)cn(C)c2c1 (configuration not stated) |
| 118 to 119 | COC(=O)Cc1cn(Cc2ccccc2)nc1O |
| 82 to 83 | CCOC(=O)/C=C/C=C/c1ccc(CCc2nc(-c3ccccc3)oc2C)cc1 |
| 218 to 220 | Cc1ccc(NC(=O)C2C(=O)N(C)c3ccccc3S2(=O)=O)cc1 (configuration not stated) |
| 106 to 109 | COc1ccc(C2Cc3[nH]c4ccccc4c3C2)cc1 (configuration not stated) |
| 149 to 151 | CCCc1nc2c(N)nc3ccccc3c2n1CCOCCCS(C)(=O)=O |
| 153 | O=S(=O)(NCCO)c1cccc(-c2cccc(-c3nc(-c4ccc(C(F)(F)F)cc4)cc(C(F)(F)F)n3)c2)c1 |
| 80 | COC(=O)[C@@H](C)Oc1ccc(Oc2cnc3ccc(Cl)cc3n2)cc1 |
| 60 to 61 | O=C1c2ccccc2C(=O)N1CCc1ccc(OC(F)(F)F)c(OC(F)(F)F)c1 |
| 94 to 99 | Fc1ccccc1CC[C@H]1CNCCN1 |
| 86 to 87 | CC1CCN(C(=O)c2ccc3nonc3c2)CC1 |
| 180 to 183 | NCC#CCCCC(=O)O |
| 148 to 149 | NC1=NN(c2ccc(OCc3ccccc3)cc2)CC1 |
| 54 to 58 | C=CCOc1cccc2c1C(=O)N(C(C)(C#N)C(C)C)C2=O (configuration not stated) |
| 59 to 61 | CCOC(=O)CCCOc1ccc(C(C)=O)cc1 |
| 122 to 124 | CCCCCC1(Cl)Cc2cc(OCC(=O)O)c(Cl)c(Cl)c2C1=O (configuration not stated) |
| 108 | C[Si](C)(C)C#Cc1cc(Cl)cnc1N |
| 112 to 114 | O=C(NC1C2CC3CC(C2)CC1C3)C1CCCCN1 (configuration not stated) |

| melting point [°C] | Compound |
| --- | --- |
| 78 to 80 | C=CCOc1ccc2sc(=O)oc2c1 |
| 97 to 99 | CCOC(Cc1ccc(OCCN2CCOc3ccccc32)cc1)C(=O)NC (configuration not stated) |
| > 300 | O=C(O)c1cnc(-c2nnn[nH]2)cc1-c1ccccc1 |
| 129 to 131 | CN(C)C(=O)c1ccc(CCC(=O)c2cccc(OCc3ccc4ccc(Cl)cc4n3)c2)o1 |
| 156 to 157 | CCC(OC)(c1cccc(OCc2ccc3c(-c4ccoc4)cc(C#N)cc3c2)c1)c1nccs1 (configuration not stated) |
| 173 | COC(=O)C(C)c1ccc2nc3ccc(Cl)cn3c(=O)c2c1 (configuration not stated) |
| 231 | O=C(O)c1ncn2c(C(F)(F)F)cc(-c3ccc(C(F)(F)F)cc3)nc12 |
| 98 | O=C(/C=C/c1cccc(C(F)(F)F)c1)NC1CC1 |
| 63 to 65 | O=C(Cl)c1c(Cl)cc([N+](=O)[O-])cc1Cl |
| > 220 | C(=Cc1ccnc2[nH]c3ccccc3c12)c1ccccc1 |
| 203 to 206 | COC(=O)C1=C(C)NC(C)=C(C(=O)NC(C)C)C1c1ccccc1[N+](=O)[O-] (configuration not stated) |
| 255 to 258 | Cn1c(SCc2ccccc2)nc2c(c1=O)NCN2C(c1ccccc1)(c1ccccc1)c1ccccc1 |
| 77 to 82 | CCCCCCNC(=O)OC1CCN(C(=O)Oc2ccc(Oc3ccccc3)cc2)CC1 |
| 39 to 41 | CN(C)c1ccc(Br)cn1 |
| 70 to 72 | C#CCOc1cc(-n2nnn(CCC)c2=O)c(Cl)cc1Cl |
| 152 to 154 | O=C(Nc1cc(C(F)(F)F)on1)c1ccccc1 |
| 140 | Nc1ccc(CCOC(=O)Nc2ccc(Nc3ccccc3)cc2)cc1 |
| 220 to 222 | Cc1ccc(C(=O)NC(NC(=NC#N)Nc2ccccc2F)C(Cl)(Cl)Cl)cc1 (configuration not stated) |
| 227 to 228 | CC(C)(C)c1cc(C2SC(CC(=O)O)C(=O)N2CCCO)cc(C(C)(C)C)c1O (configuration not stated) |
| 174 | Cc1sc(-c2ccc(-c3ccccc3)cc2)nc1CCOc1ccc(OC(C)(C)C(=O)O)cc1 |
| 73 to 76 | CC(=Cc1ccsc1Cl)[N+](=O)[O-] |
| 172 to 175 | COC(=O)c1scc(-c2ccccc2)c1S(N)(=O)=O |
| 100 to 101 | Oc1ccccc1-c1ccc[nH]1 |
| 125 to 127 | CSC(Cc1ccc2oc(Cc3nc(-c4cccc(C)c4)oc3C)cc2c1)C(=O)O (configuration not stated) |

| melting point [°C] | Compound |
| --- | --- |
| 139 | CCC1(c2cccc(OCc3ccc4c(ccc(=O)n4C)c3)c2)CCOCC1 |
| 157 to 158 | CCCC(CCC)n1nnc2c(Nc3c(Cl)cc(OC)cc3OC)nc(C)cc21 |
| 100 to 102 | COC1(c2ccc(Sc3ccc4c(c3)CCC(=S)N4C)s2)CCOCC1 |
| 114 | Cc1ccc2c(n1)C(C(N)=O)CCC2 (configuration not stated) |
| 215 to 217 | COC(=O)C1=Cc2cc(-c3ccc(N4CCOCC4)cc3)ccc2S(=O)(=O)CC1 |
| 310 to 320 | O=C(O)c1cc(Oc2ccc(Br)cc2)cc(C(=O)O)c1 |
| 71 to 72 | CCCN(CCC)c1c([N+](=O)[O-])cc(C(C)=O)cc1[N+](=O)[O-] |
| 106 to 108 | CCCNC(=O)c1nc(-c2ccccc2)c(-c2ccc(=O)n(CC)n2)s1 |
| 171 to 173 | CCCC(=O)Nc1cccc2c1C(=O)N(C1CCC(=O)NC1=O)C2=O (configuration not stated) |
| 171 to 172 | Cc1cccc2c1nc(-c1ccccc1[N+](=O)[O-])n2CC(C)O (configuration not stated) |
| 151 to 152 | CCC(=S)OC1(C(=O)COC(=O)C(C)C)CCC2C3CC(C)C4=CC(=O)C=CC4(C)C3C(O)CC21C (configuration not stated) |
| 275 to 276 | C=CCNC(=O)C=c1sc2n(c1=O)Cc1ccccc1N=2 |
| 104 to 106 | CCS(=O)(=O)N(Cc1cccnc1)c1ccc(Cl)cc1 |
| 243 to 245 | COc1ccc(C(C)C)cc1CN[C@H]1[C@H]2CCN(C[C@@H]2C(=O)NC(C)C(N)=O)[C@H]1C(c1ccccc1)c1ccccc1 (some centres not stated) |
| 235 to 236 | CCCOc1ccccc1-c1nc2nc(NC)ncc2c(=O)[nH]1 |
| 125 to 126 | O=C(c1cccnc1)N1CCC(c2ccc(Cl)cc2)=N1 |
| 155 to 160 | Cc1c(F)cccc1N1CC(C(=O)O)CC1=O (configuration not stated) |
| 208 to 211 | CC1C(=O)Nc2cccc3c2N1C(=O)C3c1ccccc1 (configuration not stated) |
| 129 to 131 | CCOCN1C(C)=C(C(=O)O)C(c2cccc(Cl)c2Cl)C(C(=O)OC)=C1C (single isomer, unassigned; (+)) |
| 68 to 69 | CCOC(=O)C(C)(C)Oc1ccc(CCNC(=O)C(C)(C)Oc2cccc(OC)c2)cc1 |
| 57 to 70 | CC(C)[C@H](S)C(=O)NC(C)(C)C(=O)N[C@@H](COCc1ccccc1)C(=O)O |
| 80 to 81 | Cc1ccccc1Cn1cnc(C#N)c1C#N |
| 228 to 230 | Cc1ccc(-c2nc(NC(=O)c3nnn[nH]3)cs2)cc1 |
| 44 to 47 | CCOC(=O)c1nsc(Br)c1O |

| Compound | melting point [°C] |
| --- | --- |
| O=C(CCl)N1Cc2ccccc2P1(=O)c1ccccc1 (configuration not stated) | 167 to 169 |
| COC(=O)C(O)(c1ccc(C(F)(F)F)cc1)c1ccc(C(F)(F)F)cc1 | 68 |
| CN1Cc2c(C(=O)OC(C)(C)C)ncn2-c2ccccc2C1=S | 207 to 208 |
| CN(C)C(=N[N+](=O)[O-])N(C)Cc1ccc(Cl)nc1 | 99 to 101 |
| CCCn1cc(C(=O)c2cccc3cc(OC)ccc23)c2ccccc21 | 139 to 140 |
| O=C(c1cc2c(cc1F)OC(c1ccccc1Cl)(c1ccccc1Cl)O2)N1CCOCC1 | 98 |
